One data set concerns acidic sphingomyelinase. Put plainly: Mixed micellar assay, acidic sphingomyelinase activity in treated SQ-20B cells. It is filed as cell-based, human. As to conditions: 5 μM chelerythrine 30 minutes then 10 Gy; within 5 minutes of IR. As for the experimental part: FIG. 5A. […] The mixed micellar assay for sphingomyelinase activity was used to quantitate increased enzymatic activity.
(§1) The mixed micellar sphingomyelinase assay using ^[14] C labeled sphingomyelin was performed as described (Wiegmann et al., 1994) with minor modifications as described herein. Exponentially growing cells 2×10^7 were treated, collected, and lysed in 200 μl of neutral buffer (20 mM Hepes, pH 7.4; 10 mM MgCl2, 2 mM EDTA, 5 mM DTT, […], 10 mM b-glycerolphosphate, 750 μM ATP, 1 mM PMSF, Leupeptin, Pepstatin, 2% Triton X-100) or an acid buffer (pH=5.5, 2% Triton X-100, 1 mM PMSF, Leupeptin, Pepstatin). After incubation for 5 minutes at 4° C., cells were homogenized by sonication and cell debris were removed by low speed centrifugation (800×g). The protein concentration was measured using the BioRad protein assay system (BioRad). Protein (50 μg) was incubated for 2 hours at 37° C. in a buffer (1 ml final volume) containing 20 mM HEPES, 1 mM MgCl2, and 0.9 μl [N-methyl-^14 C sphingomyelin].

A further data set has as its system SQ-20B xenografts. In words: Histology of SQ-20B xenografts. It is filed as in vivo, nude mice (human tumor xenograft). As to conditions: combined x-ray and chelerythrine vs IR. As for the experimental part:
Tumors were injected once or twice (day 0 and day 4) with chelerythrine, chelerythrine and 20 Gy (5 Gy/Day) or 20 Gy alone and excised on day 7, fixed in 10% neutral buffered formalin. Tumors were then trimmed and processed in a Tissue Tek II Tissue Processor. Tissues were embedded in paraffin, sectioned and stained with hematoxylin and eosin or with […] of DAPI (4',6-iamidino-2-phenylindole, Sigma D9542, 1 μg/ml in PBT (PBS+1% Triton X-100)), followed by examination for apoptosis and necrosis by light microscopy.
In contrast, 1/16 of the radiation+buffer and 13/43 of the chelerythrine only treated animals regressed to less than 10% of the initial tumor volume. […] Representative sections of non-necrotic areas of tumors were stained with DAPI to detect nuclear changes of apoptosis. Tumor sections were taken at day 7 following treatment with 2 injections of chelerythrine alone, 20 Gy alone, 1 injection of chelerythrine and 20 Gy, or 2 treatments with chelerythrine and 20 Gy. Nuclei from non-necrotic areas of tumors treated with radiation alone appeared rounded and contained a smooth heterachromatin appearance. Few apoptotic nuclei as defined by chromatin margination and nuclear shrinkage could be detected in these areas.
On the technique in general: A xenograft is tissue or cells of one species grown in another, often human tumour cells in immunodeficient mice.

In the next data set the test system is neutral sphingomyelinase. In words: Mixed micellar assay, neutral sphingomyelinase activity in treated WEHI-231 cells. The note with it: chelerythrine, within 30 minutes; SD. Type of data set: cell-based, murine. On the procedure: FIG. 7C. Graph of neutral and acidic sphingomyelinase activity normalized to percent of control. Cells (2×10^7) were treated with chelerythrine for 30 minutes prior to being assayed for neutral or acidic sphingomyelinase activity. Error bars represent +/- SEM from 4 individual studies with duplicate determinants.
as §1, with “sphingomyelin]. […] Radioactive phosphorylcholine was measured by scintillation counting. Data is expressed as a percent of control for both the acidic and neutral sphingomyelinases. […]” for “sphingomyelin].”

A short description of data set [1]: Acute lethality / tolerability in mice.

Structures are written as SMILES.

Broadly, the LD50 is the dose expected to kill half of the subjects tested. Read a low LD50 as greater toxicity.

For `COc1ccc2c(c[n+](C)c3c4cc5c(cc4ccc23)OCO5)c1OC` [chelerythrine, 1,2-dimethoxy-12-methyl[1,3]benzodioxolo[5,6-c]phenanthridinium], the “acidic sphingomyelinase activity, x-rays and chelerythrine” value in the data set with acidic sphingomyelinase was “about 170 % of control”. The “inflammatory response and necrosis in epidermis and muscle” value in the data set with SQ-20B xenografts was “did not increase this response”. The neutral sphingomyelinase activity with neutral sphingomyelinase was 235% (+/-38 SD). Further, the health of animals result in data set [1] (all treatment groups, throughout the xenograft study) is “appeared healthy throughout the study”. Also, in data set [1] (mouse, in vivo, ip), the LD50 is 25 mg/kg.

The record behind these values is patent US6025365A, “Chelerythrine and radiation combined tumor therapy” (Arch Development Corp., priority 1997, dated 2000).
